How the values were obtained:
[1] = test system: diet-induced NASH mice; experiment: Example 7: diet-induced (GAN diet) NASH mice, Compound 2, FXR agonists and combinations; format: in vivo; settings: for blood glucose level compared to vehicle: FIG. 6; for liver TG levels at the termination of the study: FIG. 8; for plasma triglyceride (TG) levels: as early as seven days, FIG. 7; for relative terminal body weight compared to vehicle: study day 21, FIG. 5; for plasma TG levels compared to vehicle: day 21, FIG. 11; for total liver triglycerides compared to tropifexor: day 21, FIG. 12; for plasma insulin level, significance compared to vehicle / plasma insulin levels compared to vehicle alone and to Compound 2: study day 21, FIG. 9; for plasma ALT level compared to vehicle alone / plasma ALT levels compared to tropifexor: study day 21, FIG. 10
Protocol: NASH was induced in mice by feeding mice a Gubra amylin NASH (GAN) diet as described in Boland et al. World J Gastroenterol. 2019, 25(33): 4904-4920. One week prior to administration of a first dose of compounds, the mice were weighed and randomized, and their food intake was measured. Mice were randomly assigned to dosing groups, with 12 mice per group. Assigned dosages included the following; Compound 2 (10 mg/kg); tropifexor (0.3 mg/kg); Compound 2 (10 mg/kg)+tropifexor (0.3 mg/kg); Compound II-1 (10 mg/kg); Compound 2 (10 mg/kg)+Compound II-1 (30 mg/kg); Compound II-2 (10 mg/kg); and Compound 2 (10 mg/kg)+Compound II-2 (30 mg/kg). One group was mock treated with vehicle only as a control. Dosage of Compound II-1 and Compound II-2 were titrated over 6 days, with a dosage of 3 mg/kg administered on days 0, 1 and 2 and a dosage of 10 mg/kg administered on days 3, 4, and 5. Absolute and relative body weight of the mice were recorded daily.
(§1) Fed blood glucose and fed plasma levels of alanine transaminase (ALT) aspartate transaminase (AST), triglycerides (TG), and total cholesterol (TC) were measured at days 7, 14, 21.
(§2) After 3 weeks, animals were sacrificed. Plasma enzymes (P-ALT (alanine aminotransferase) and P-AST (aspartate aminotransferase)), total plasma triglycerides, and total plasma cholesterol were measured, and terminal necropsy of each liver was carried out, determining relative liver weight as a percentage of body weight, assaying total liver biochemistry including total liver triglycerides, plasma insulin and total liver cholesterol, as well as histological evaluation of total liver hydroxyproline, and steatosis. Tissue samples were preserved for characterization using RNAseq.

[2] = target: T1, FXR receptor (Homo sapiens, UniProt Q96RI1); experiment: In vitro FXR activity, PathHunter enzyme fragment complementation assay in CHO cells; format: cell-based; settings: for EC50: CHO PathHunter cells, ten-point dose curve, chemiluminescence; for Emax: CHO, read-out: Max Response (%)
T1 construct: beta-galactosidase enzyme fragment (EFC/PathHunter); expressed in transfected cells; host or cells: Chinese Hamster Ovary (CHO) cells, stably transfected, clonally derived
T1 sequence (Q96RI1 1-486): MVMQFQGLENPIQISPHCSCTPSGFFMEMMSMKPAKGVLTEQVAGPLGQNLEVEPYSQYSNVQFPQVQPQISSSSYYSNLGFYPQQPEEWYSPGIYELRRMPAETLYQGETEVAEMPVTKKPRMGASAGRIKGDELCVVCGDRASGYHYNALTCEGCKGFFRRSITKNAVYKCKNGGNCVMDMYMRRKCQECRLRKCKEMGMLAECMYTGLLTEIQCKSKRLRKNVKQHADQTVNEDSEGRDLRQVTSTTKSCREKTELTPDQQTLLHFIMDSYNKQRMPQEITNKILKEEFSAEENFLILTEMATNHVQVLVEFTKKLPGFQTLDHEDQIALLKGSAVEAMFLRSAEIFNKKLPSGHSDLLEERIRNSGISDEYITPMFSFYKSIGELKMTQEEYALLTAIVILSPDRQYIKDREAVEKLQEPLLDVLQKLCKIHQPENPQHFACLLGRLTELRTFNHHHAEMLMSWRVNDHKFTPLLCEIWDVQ
Protocol: Cells were seeded in cell plating reagent in a total volume of 20 μL into 384-well microplates and incubated at 37° C., 5% CO2 humidified incubator for 24 or 48 hours prior to testing. FXR agonists were dissolved in DMSO (dimethyl sulfoxide). Ligands were subsequently diluted in the cell plating reagent to make up desired concentration stock solution. Ten-point dose curve serial dilutions were prepared in cell plating reagent. 5 μL of 5× sample was added to cells and incubated at 37° C. or room temperature for 3-16 hours. Final assay vehicle concentration was 1%. Chemiluminescent signals were generated through addition of 12.5 μL or 15 μL of detection reagent cocktail ([…]), followed by incubation at room temperature for 1 hour. Microplates were read for signal generation using a PerkinElmer Envision instrument to detect chemiluminescence. The percentage activity was calculated using the following formula: % Activity=100%×(mean RLU of test sample−mean RLU of vehicle control)/(mean MAX control ligand−mean RLU of vehicle control).

[3] = test system: diet-induced NASH mice; experiment: Example 6: diet-induced (GAN diet) NASH mice, FXR agonists alone; format: in vivo; settings: 10 mg/kg; for blood glucose level compared to vehicle: FIG. 2; for plasma triglyceride (TG) levels compared to vehicle: as early as seven days, FIG. 3; for total liver triglycerides: over the course of the study, FIG. 4; for relative terminal body weight compared to vehicle: study day 21, FIG. 1; for liver TG lowering compared to tropifexor: II-1 p<0.05, II-2 p<0.01
Protocol: NASH was induced in mice by feeding mice a Gubra amylin NASH (GAN) diet as described in Boland et al. World J Gastroenterol. 2019, 25(33): 4904-4920. One week prior to administration of a first dose of compounds, the mice were weighed and randomized, and their food intake was measured. Mice were randomly assigned to dosing groups, with 12 mice per group. Assigned dosages were: Compound II-1 (10 mg/kg); Compound II-2 (10 mg/kg) One group was mock treated with vehicle only as a control. Dosage of Compound II-1 and Compound II-2 were titrated over 3 days, with a dosage of 3 mg/kg administered on days 0, 1 and 2. Dosage of tropifexor was titrated over 2 days, with a dosage of 0.1 mg/kg administered on days 0 and 1. Absolute and relative body weight of the mice were recorded daily.
as §1
as §2, with “8” for “3”

[4] = % Activity relative to MAX control ligand

Row | Structure (SMILES) | blood glucose level compared to vehicle [1] | liver TG levels at the termination of the study [1] | plasma triglyceride (TG) levels [1] | relative terminal body weight compared to vehicle [1] | plasma TG levels compared to vehicle [1] | total liver triglycerides compared to tropifexor [1] | plasma insulin level, significance compared to vehicle [1] | plasma insulin levels compared to vehicle alone and to Compound 2 [1] | plasma ALT level compared to vehicle alone [1] | plasma ALT levels compared to tropifexor [1] | EC50 [2] [nM] | Emax [2, 4] [%] | blood glucose level compared to vehicle [3] | plasma triglyceride (TG) levels compared to vehicle [3] | total liver triglycerides [3] | relative terminal body weight compared to vehicle [3] | liver TG lowering compared to tropifexor [3] | Max Response (%) [2, 4] [%] | plasma TG lowering compared to tropifexor ([3]; p<0.05)
1 | Cc1cc(OCP2(=O)OCC[C@@H](c3cccc(Cl)c3)O2)cc(C)c1Cc1ccc(O)c(C(C)C)c1 (stereo partly drawn) [Compound 2] | lower blood glucose level | lowered liver TG levels | significantly reduced | lower relative terminal body weight |  |  |  |  |  |  |  |  |  |  |  |  |  |  | 
2 | O=P(O)(O)c1cc(F)c2nc(N3[C@@H]4CC[C@H]3CC(OCc3c(-c5ccccc5OC(F)(F)F)noc3C3CC3)C4)sc2c1 (stereo partly drawn) [Compound II-1, (2-((1R,5S)-3-((5-cyclopropyl-3-(2-(trifluoromethoxy)phenyl)isoxazol-4-yl)methoxy)-8-azabicyclo[3.2.1]octan-8-yl)-4-fluorobenzo[d]thiazol-6-yl)phosphonic acid] | lower blood glucose level | lowered liver TG levels | significantly reduced | lower relative terminal body weight | significant reduction of plasma TG levels | reduced total liver triglycerides than tropifexor | statistically significant reduction of plasma insulin level | lower insulin levels | lower plasma ALT level | lower plasma ALT levels | 2860 | 52 | lower blood glucose level | significantly reduced | similarly decreased | lower relative terminal body weight | greater efficacy in lowering liver TG levels |  | 
3 | CP(=O)(O)c1cc(F)c2nc(N3[C@@H]4CC[C@H]3CC(OCc3c(-c5ccccc5OC(F)(F)F)noc3C3CC3)C4)sc2c1 (stereo partly drawn) [Compound II-2] | lower blood glucose level | lowered liver TG levels | significantly reduced | lower relative terminal body weight | significant reduction of plasma TG levels | reduced total liver triglycerides than tropifexor | statistically significant reduction of plasma insulin level | lower insulin levels | lower plasma ALT level | lower plasma ALT levels | 3080 |  | lower blood glucose level | significantly reduced | similarly decreased | lower relative terminal body weight | greater efficacy in lowering liver TG levels | 90 | greater efficacy in lowering plasma TG levels
4 | Oc1cc(-c2cc(F)c3nc(N4[C@@H]5CC[C@H]4CC(OCc4c(-c6ccccc6OC(F)(F)F)noc4C4CC4)C5)sc3c2)on1 (stereo partly drawn) [Compound II-3, 5-(2-((1R,5S)-3-((5-cyclopropyl-3-(2-(trifluoromethoxy)phenyl)isoxazol-4-yl)methoxy)-8-azabicyclo[3.2.1]octan-8-yl)-4-fluorobenzo[d]thiazol-6-yl)isoxazol-3-ol] |  |  |  |  | significant reduction of plasma TG levels | reduced total liver triglycerides than tropifexor | statistically significant reduction of plasma insulin level | lower insulin levels | lower plasma ALT level | lower plasma ALT levels | 24.6 | 151 |  |  |  |  |  |  | 
5 | Oc1cc(-c2cc(F)c3nc(N4[C@@H]5CC[C@H]4CC(OCc4c(-c6ccccc6OC(F)(F)F)noc4C4CC4)C5)sc3c2)no1 (stereo partly drawn) [Compound II-4, 3-(2-((1R,5S)-3-((5-cyclopropyl-3-(2-(trifluoromethoxy)phenyl)isoxazol-4-yl)methoxy)-8-azabicyclo[3.2.1]octan-8-yl)-4-fluorobenzo[d]thiazol-6-yl)isoxazol-5-ol] |  |  |  |  | significant reduction of plasma TG levels | reduced total liver triglycerides than tropifexor |  | lower insulin levels | lower plasma ALT level | lower plasma ALT levels | 81.1 | 159 |  |  |  |  |  |  | 
